Data as given in publication PMC2716805, “Canine Plasminogen: Spectral Responses to Changes in 6-Aminohexanoate and Temperature” (2007).

Molecular target: T1, canine plasminogen (DPGN) (Canis lupus, UniProt P80009)
T1 construct: gene PLG; intact plasminogen purified from dog blood (samples showing conversion to lys-plasminogen or plasmin discarded)
Assay: titration followed by 4th derivative near-UV absorption spectroscopy (R-values)
Type: binding

T1 sequence (P80009 with tags, fused parts or gaps): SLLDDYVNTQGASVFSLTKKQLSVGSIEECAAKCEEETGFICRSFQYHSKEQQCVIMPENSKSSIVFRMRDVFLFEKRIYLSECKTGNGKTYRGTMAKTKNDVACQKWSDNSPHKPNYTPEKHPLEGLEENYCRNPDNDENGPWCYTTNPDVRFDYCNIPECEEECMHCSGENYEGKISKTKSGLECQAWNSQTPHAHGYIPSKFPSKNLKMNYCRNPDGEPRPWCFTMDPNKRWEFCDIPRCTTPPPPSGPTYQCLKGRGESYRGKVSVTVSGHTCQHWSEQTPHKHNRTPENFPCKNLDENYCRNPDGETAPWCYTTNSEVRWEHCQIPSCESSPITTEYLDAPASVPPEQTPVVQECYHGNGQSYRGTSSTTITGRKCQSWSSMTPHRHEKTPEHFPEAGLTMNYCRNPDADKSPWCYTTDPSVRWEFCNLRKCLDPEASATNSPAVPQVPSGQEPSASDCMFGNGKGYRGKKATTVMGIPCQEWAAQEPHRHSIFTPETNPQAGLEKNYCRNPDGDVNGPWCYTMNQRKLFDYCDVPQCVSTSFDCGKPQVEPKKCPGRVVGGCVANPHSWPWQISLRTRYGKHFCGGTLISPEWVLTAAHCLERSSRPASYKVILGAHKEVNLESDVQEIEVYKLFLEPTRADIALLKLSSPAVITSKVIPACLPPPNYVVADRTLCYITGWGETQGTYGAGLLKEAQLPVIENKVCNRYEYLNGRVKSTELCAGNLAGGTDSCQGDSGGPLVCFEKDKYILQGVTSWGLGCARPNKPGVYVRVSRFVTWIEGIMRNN

NCCCCCC(=O)O [6-AH, 6-aminohexanoate]
Kd: ~1000 nM
